PubChem BioAssay (NCI)
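GI50 = concentration required for 50% inhibition of growth. Definition used: TGI = concentration required for complete inhibition of growth.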

Columns and labels:
Assay in all cases: NCI-60 cell line screen, 384-well format
[1] = test system: NCI-H522 lung
[2] = test system: CCRF-CEM leukemia
[3] = test system: NCI-H460 NSCLC
[4] = test system: PC-3 prostate
[5] = test system: KM12 colon
[6] = test system: CAKI-1 renal
[7] = test system: TK-10 renal
[8] = test system: A549 NSCLC
[9] = test system: BT-549 breast
[10] = test system: HCT-116 colon
[11] = test system: COLO 205 colon
[12] = test system: NCI-H322M lung
[13] = test system: UACC-62 melanoma
[14] = test system: MOLT-4 leukemia
[15] = test system: A498 renal
[16] = test system: NCI/ADR-RES ovarian
[17] = test system: SF-268 CNS
[18] = test system: DU-145 prostate
[19] = test system: SK-MEL-28 melanoma
[20] = test system: SR leukemia
[21] = test system: NCI-H23 lung
[22] = test system: UO-31 renal
[23] = test system: EKVX NSCLC
[24] = test system: U251 glioblastoma
[25] = test system: OVCAR-3 ovarian
[26] = test system: MDA-MB-435 melanoma
[27] = test system: MALME-3M melanoma
[28] = test system: HL-60(TB) leukemia
[29] = test system: LOX IMVI melanoma
[30] = test system: HCT-15 colon
[31] = test system: K-562 leukemia
[32] = test system: RXF 393 renal
[33] = test system: SK-MEL-5 melanoma
[34] = test system: RPMI-8226 leukemia
[35] = test system: HOP-62 NSCLC
[36] = test system: MCF7 breast
[37] = test system: SK-OV-3 ovarian
[38] = test system: OVCAR-4 ovarian
[39] = test system: IGROV1 ovarian
[40] = test system: NCI-H226 lung
[41] = test system: M14 melanoma
[42] = test system: HT29 colon
[43] = test system: SF-295 CNS
[44] = test system: HOP-92 NSCLC
[45] = test system: SW-620 colon
[46] = test system: SF-539 CNS
[47] = test system: OVCAR-5 ovarian

COc1ccc([C@@H](O)c2cc(-c3ncnc4cc(N5CCOCC5)ccc34)c(F)cc2Cl)nn1
GI50 [1]: 1.29 µM | TGI [1]: 8.26 µM | GI50 [2]: 2.2 µM | TGI [2]: 7 µM | GI50 [3]: 2.19 µM | TGI [3]: 13.1 µM | GI50 [4]: 0.889 µM | TGI [4]: 11.1 µM | GI50 [5]: 5.81 µM | TGI [5]: 19 µM | GI50 [6]: 1.19 µM | TGI [6]: 16 µM | GI50 [7]: 2.79 µM | TGI [7]: 14.6 µM | GI50 [8]: 2.6 µM | TGI [8]: 12.3 µM | GI50 [9]: 1.19 µM | TGI [9]: 9.64 µM | GI50 [10]: 3.88 µM | TGI [10]: 16.4 µM | GI50 [11]: 3.52 µM | TGI [11]: 11.1 µM | GI50 [12]: 3.88 µM | TGI [12]: 21 µM | GI50 [13]: 1.16 µM | TGI [13]: 11.8 µM | GI50 [14]: 0.892 µM | TGI [14]: 2.31 µM | GI50 [15]: 0.372 µM | TGI [15]: 1.99 µM | GI50 [16]: 3.97 µM | TGI [16]: 17.6 µM | GI50 [17]: 6.38 µM | TGI [17]: 26.8 µM | GI50 [18]: 4.21 µM | TGI [18]: 18.8 µM | GI50 [19]: 2.39 µM | TGI [19]: 27.8 µM | GI50 [20]: 6.08 µM | TGI [20]: 19.5 µM | GI50 [21]: 2.49 µM | TGI [21]: 14.9 µM | GI50 [22]: 1.95 µM | TGI [22]: 11.6 µM | GI50 [23]: 1.54 µM | TGI [23]: 10.7 µM | GI50 [24]: 8.43 µM | TGI [24]: 26.1 µM | GI50 [25]: 1.17 µM | TGI [25]: 9.62 µM | GI50 [26]: 5.07 µM | TGI [26]: 20.6 µM | GI50 [27]: 1.66 µM | TGI [27]: 10.7 µM | GI50 [28]: 0.522 µM | TGI [28]: 1.94 µM | GI50 [29]: 1.81 µM | TGI [29]: 4.44 µM | GI50 [30]: 3.49 µM | TGI [30]: 15 µM | GI50 [31]: 3.55 µM | TGI [31]: 22 µM | GI50 [32]: 0.553 µM | TGI [32]: 3.3 µM | GI50 [33]: 1.61 µM | TGI [33]: 5.92 µM | GI50 [34]: 1.09 µM | TGI [34]: 2.86 µM | GI50 [35]: 4.86 µM | TGI [35]: 26 µM | GI50 [36]: 0.843 µM | TGI [36]: 10.4 µM | GI50 [37]: 1.57 µM | TGI [37]: 6.2 µM | GI50 [38]: 5.02 µM | TGI [38]: 26.2 µM | GI50 [39]: 0.682 µM | TGI [39]: 2.45 µM | GI50 [40]: 3.64 µM | TGI [40]: 24.6 µM | GI50 [41]: 4.23 µM | TGI [41]: 16.9 µM | GI50 [42]: 3.36 µM | TGI [42]: 16.3 µM | GI50 [43]: 1.87 µM | TGI [43]: 12.6 µM | GI50 [44]: 0.583 µM | TGI [44]: 5.19 µM | GI50 [45]: 5.21 µM | TGI [45]: 18.9 µM | GI50 [46]: 3.38 µM | TGI [46]: 28.4 µM | GI50 [47]: 3.47 µM | TGI [47]: 21 µM
